Like-named read-outs stand apart in the source and are kept apart here.
Assays:
[1] = target: Photinus pyralis (firefly) luciferase (Photinus pyralis, UniProt P08659); assay: biochemical; format: biochemical
human CYP1A2 = target: T1, human CYP1A2 (Homo sapiens, UniProt P05177)
T1 sequence (P05177 1-516): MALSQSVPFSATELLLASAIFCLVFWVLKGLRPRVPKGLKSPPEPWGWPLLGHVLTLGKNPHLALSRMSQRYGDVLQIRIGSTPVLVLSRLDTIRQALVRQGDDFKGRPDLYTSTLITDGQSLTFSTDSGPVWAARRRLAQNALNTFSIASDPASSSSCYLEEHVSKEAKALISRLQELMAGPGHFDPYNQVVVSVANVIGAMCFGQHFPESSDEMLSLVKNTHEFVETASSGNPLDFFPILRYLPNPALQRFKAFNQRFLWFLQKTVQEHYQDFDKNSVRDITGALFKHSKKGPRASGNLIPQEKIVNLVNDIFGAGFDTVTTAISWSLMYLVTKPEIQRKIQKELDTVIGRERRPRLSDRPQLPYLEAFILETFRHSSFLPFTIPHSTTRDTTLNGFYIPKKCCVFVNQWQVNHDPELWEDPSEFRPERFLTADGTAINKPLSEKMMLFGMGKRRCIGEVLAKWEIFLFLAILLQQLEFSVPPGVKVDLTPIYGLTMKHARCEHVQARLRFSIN

human CYP2C9 = human CYP2C9 (Homo sapiens, UniProt P11712)
human CYP2C19 = human CYP2C19 (Homo sapiens, UniProt P33261)
human CYP2D6 = human CYP2D6 (Homo sapiens, UniProt P10635)
CYP3A4 = CYP3A4 (Homo sapiens, UniProt P08684)
[2] = read-out: Luciferase IC50 (half-maximal inhibitory concentration)

Chain of human CYP2C19 (P33261 whole entry): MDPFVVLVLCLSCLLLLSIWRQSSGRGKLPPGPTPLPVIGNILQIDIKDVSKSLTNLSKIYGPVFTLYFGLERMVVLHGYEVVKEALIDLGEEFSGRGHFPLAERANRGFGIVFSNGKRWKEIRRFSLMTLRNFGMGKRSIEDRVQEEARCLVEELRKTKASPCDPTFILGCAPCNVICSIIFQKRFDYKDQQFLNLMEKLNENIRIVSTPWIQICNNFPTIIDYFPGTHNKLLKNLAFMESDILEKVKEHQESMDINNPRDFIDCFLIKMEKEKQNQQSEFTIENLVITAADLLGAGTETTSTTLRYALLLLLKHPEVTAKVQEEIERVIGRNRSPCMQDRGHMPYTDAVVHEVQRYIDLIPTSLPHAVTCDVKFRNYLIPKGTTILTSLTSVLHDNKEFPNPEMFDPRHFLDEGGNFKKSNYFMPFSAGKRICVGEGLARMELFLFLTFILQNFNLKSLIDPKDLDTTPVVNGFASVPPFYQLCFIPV
Chain of Photinus pyralis (firefly) luciferase (P08659 whole entry): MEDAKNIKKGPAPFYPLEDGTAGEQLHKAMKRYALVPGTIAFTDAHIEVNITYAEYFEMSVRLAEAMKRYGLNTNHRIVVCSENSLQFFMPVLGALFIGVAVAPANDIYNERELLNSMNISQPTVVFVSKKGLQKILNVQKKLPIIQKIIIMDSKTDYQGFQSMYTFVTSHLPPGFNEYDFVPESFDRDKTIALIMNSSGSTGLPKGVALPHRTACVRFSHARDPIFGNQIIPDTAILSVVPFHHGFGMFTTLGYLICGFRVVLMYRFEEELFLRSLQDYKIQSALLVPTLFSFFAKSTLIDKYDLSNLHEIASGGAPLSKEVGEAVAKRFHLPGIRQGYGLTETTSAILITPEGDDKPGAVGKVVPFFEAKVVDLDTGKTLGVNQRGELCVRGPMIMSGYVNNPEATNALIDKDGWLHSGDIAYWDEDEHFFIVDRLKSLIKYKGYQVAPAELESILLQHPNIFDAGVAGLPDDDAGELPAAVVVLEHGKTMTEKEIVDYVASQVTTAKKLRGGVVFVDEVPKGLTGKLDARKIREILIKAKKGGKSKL
Chain of CYP3A4 (P08684 whole entry): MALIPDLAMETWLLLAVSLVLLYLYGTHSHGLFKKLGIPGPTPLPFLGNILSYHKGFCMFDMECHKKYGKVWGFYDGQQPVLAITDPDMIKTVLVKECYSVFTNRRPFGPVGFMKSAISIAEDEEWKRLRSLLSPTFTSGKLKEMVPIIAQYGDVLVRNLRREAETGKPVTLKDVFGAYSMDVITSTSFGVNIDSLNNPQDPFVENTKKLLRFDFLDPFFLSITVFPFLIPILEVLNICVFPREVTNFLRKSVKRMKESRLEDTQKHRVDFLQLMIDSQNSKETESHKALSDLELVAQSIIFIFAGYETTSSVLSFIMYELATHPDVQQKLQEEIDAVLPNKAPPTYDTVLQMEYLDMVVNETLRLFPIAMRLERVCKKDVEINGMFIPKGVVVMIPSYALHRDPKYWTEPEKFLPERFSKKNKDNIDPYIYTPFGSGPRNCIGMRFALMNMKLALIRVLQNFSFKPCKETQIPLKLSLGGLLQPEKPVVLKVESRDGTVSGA
Chain of human CYP2D6 (P10635 whole entry): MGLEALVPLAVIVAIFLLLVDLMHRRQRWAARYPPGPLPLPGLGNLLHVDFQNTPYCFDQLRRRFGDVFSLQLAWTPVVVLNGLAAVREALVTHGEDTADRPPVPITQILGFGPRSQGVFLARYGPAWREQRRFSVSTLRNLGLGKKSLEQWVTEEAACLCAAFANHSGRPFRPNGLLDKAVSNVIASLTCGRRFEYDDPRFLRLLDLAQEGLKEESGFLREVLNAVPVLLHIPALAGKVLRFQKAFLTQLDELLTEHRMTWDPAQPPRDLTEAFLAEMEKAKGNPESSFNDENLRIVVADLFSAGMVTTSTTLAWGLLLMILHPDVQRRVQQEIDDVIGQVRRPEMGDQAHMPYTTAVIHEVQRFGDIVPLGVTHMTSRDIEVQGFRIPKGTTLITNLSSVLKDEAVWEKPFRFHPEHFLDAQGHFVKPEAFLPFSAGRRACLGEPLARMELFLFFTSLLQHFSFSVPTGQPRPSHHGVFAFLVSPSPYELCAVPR
Chain of human CYP2C9 (P11712 whole entry): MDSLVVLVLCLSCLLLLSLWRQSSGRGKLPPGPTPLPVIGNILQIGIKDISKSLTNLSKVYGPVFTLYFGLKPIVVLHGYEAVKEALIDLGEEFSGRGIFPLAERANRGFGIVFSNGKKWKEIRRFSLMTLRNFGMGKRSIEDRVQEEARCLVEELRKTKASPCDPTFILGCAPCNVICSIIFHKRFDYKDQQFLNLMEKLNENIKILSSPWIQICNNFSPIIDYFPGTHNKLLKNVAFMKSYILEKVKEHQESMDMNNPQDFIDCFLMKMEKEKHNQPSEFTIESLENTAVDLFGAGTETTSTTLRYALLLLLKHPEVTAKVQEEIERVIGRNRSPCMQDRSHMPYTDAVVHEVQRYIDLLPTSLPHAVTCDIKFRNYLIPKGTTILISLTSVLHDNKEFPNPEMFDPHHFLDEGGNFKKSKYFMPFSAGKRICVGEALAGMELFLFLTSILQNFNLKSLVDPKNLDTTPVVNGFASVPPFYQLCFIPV

Row | SMILES | Luciferase IC50 (half-maximal inhibitory concentration) [1] | IC50 (human CYP1A2) [µM] | IC50 (human CYP2C9) [µM] | IC50 (human CYP2C19) [µM] | IC50 (human CYP2D6) [µM] | IC50 (CYP3A4) [µM] | further results
1 | OC(c1ccc(Cl)cc1)(c1ccc(Cl)cc1)c1cccnc1 [Parinol] | Inactive | 38.5 | 0.4 | 0.08 | 14.2 | 2.75 | CYP1A2 Efficacy (in parenthesis) (human CYP1A2): 38.47 ± 2.51 (-60 ± 13) %; CYP2C9 Efficacy (in parenthesis) (human CYP2C9): 0.4 ± 0.05 (-109 ± 9) %; CYP2C19 Efficacy (in parenthesis) (human CYP2C19): 0.08 ± 0.01 (-151 ± 12) %; CYP2D6 Efficacy (in parenthesis) (human CYP2D6): 14.17 ± 5.05 (-105 ± 7) %; CYP3A4 Efficacy (in parenthesis) (CYP3A4): 2.75 ± 0.47 (-69 ± 3) %
2 | CO/C=C(/C(=O)OC)c1ccccc1COc1cccc(C(F)(F)F)n1 [Picoxystrobin] | Inactive | 32.1 | 38.4 | 0.99 | 38.4 | – | AC50 (human CYP1A2): 32.1 µM; AC50 (human CYP2C9): 38.4 µM; AC50 (human CYP2C19): 0.99 µM; AC50 (human CYP2D6): 38.4 µM; AC50 (CYP3A4): 2.32 µM; CYP3A4 IC50 (half-maximal inhibitory concentration) (CYP3A4): 2.32 ± 0.75 (38 ± 1) µM
3 | COc1cc2c(cc1OC)C(C(C(=O)N(CCc1ccc(OC)c(OC)c1OC)CCc1ccc(OC)c(OC)c1OC)c1ccccc1)=NCC2.Cl (stereo not drawn) [Pinokalant hydrochloride] | Inactive | 37.3 | – | 19.6 | – | 0.57 | CYP2C9 Efficacy (human CYP2C9): 11.86 ± 0.77 (-103 ± 7) %; CYP2D6 Efficacy (human CYP2D6): 9.34 ± 4.19 (-64 ± 10) %
4 | CC(=O)/C=C/c1ccc2c(c1)OCO2 [Piperonal acetone] | – | 0.25 | – | 14.5 | – | 4.65 | IC50 [1, 2]: 40.3 µM; CYP2C9 Efficacy (human CYP2C9): 8.04 ± 0.92 (-118 ± 10) %; CYP2D6 Efficacy (human CYP2D6): 31 ± 5.28 (-103 ± 9) %
5 | CC(=O)CCc1ccc2c(c1)OCO2 [Piperonyl acetone] | Inactive | 0.75 | – | 29.9 | – | 18.5 | CYP2C9 Efficacy (human CYP2C9): 22.26 ± 9.54 (-102 ± 10) %; CYP2D6 Efficacy (human CYP2D6): 44.96 ± 16.37 (-42 ± 9) %
6 | O=C(NCc1cccnc1)Nc1ccc([N+](=O)[O-])cc1 [Pyrinuron] | Inactive | 15.5 | 5.43 | 3.28 | 44.8 | 0.93 | CYP1A2 Efficacy (in parenthesis) (human CYP1A2): 15.45 ± 2.63 (-100 ± 0) %; CYP2C9 Efficacy (in parenthesis) (human CYP2C9): 5.43 ± 0.35 (-105 ± 9) %; CYP2C19 Efficacy (in parenthesis) (human CYP2C19): 3.28 ± 1.56 (-135 ± 13) %; CYP2D6 Efficacy (in parenthesis) (human CYP2D6): 44.8 ± 15.98 (-64 ± 3) %; CYP3A4 Efficacy (in parenthesis) (CYP3A4): 0.93 ± 0.12 (-76 ± 5) %
7 | C[C@@H]1CN(CCCn2c3ccccc3c3ccccc32)C[C@H](C)N1.Cl.Cl [Rimcazole dihydrochloride] | – | 10.6 | – | – | – | 1.84 | Luciferase IC50 [1]: Inactive; CYP2C9 IC50 (human CYP2C9): Inactive; CYP2C19 IC50 (human CYP2C19): Inactive; CYP2D6 Efficacy (human CYP2D6): 0.4 ± 0.03 (-102 ± 4) %
8 | Cn1ccc2cc3c(cc21)CCN3C(=O)Nc1cccnc1 [SB-206553] | – | 0.07 | – | – | – | 3.55 | Luciferase Efficacy (in parenthesis) [1]: 4.77 ± 1.70 (-73 ± 12) %; IC50 [1, 2]: 4.77 µM; CYP1A2 Efficacy (in parenthesis) (human CYP1A2): 0.07 ± 0.01 (-96 ± 6) %; CYP2C9 IC50 (half-maximal inhibitory concentration) (human CYP2C9): Inactive; CYP2C19 IC50 (half-maximal inhibitory concentration) (human CYP2C19): Inactive; CYP2D6 IC50 (half-maximal inhibitory concentration) (human CYP2D6): Inactive; CYP3A4 Efficacy (in parenthesis) (CYP3A4): 3.55 ± 0.64 (-82 ± 5) %
9 | COc1cccc(CCc2ccccc2OCC(CN(C)C)OC(=O)CCC(=O)O)c1.Cl (stereo not drawn) [Sarpogrelate hydrochloride] | Inactive | 16.2 | – | 36.8 | – | 6.72 | CYP2C9 IC50 (half-maximal inhibitory concentration) (human CYP2C9): Inactive; CYP2D6 Efficacy (human CYP2D6): 0.42 ± 0.24 (-101 ± 2) %
10 | CC(C)CC(N(C)C)C1(c2ccc(Cl)cc2)CCC1.Cl (stereo not drawn) [Sibutramine hydrochloride] | Inactive | – | – | 8.47 | 4.24 | 0.94 | CYP1A2 IC50 (half-maximal inhibitory concentration) (human CYP1A2): Inactive; CYP2C9 IC50 (half-maximal inhibitory concentration) (human CYP2C9): Inactive; CYP2C19 Efficacy (in parenthesis) (human CYP2C19): 8.47 ± 1.44 (-127 ± 8) %; CYP2D6 Efficacy (in parenthesis) (human CYP2D6): 4.24 ± 0.72 (-88 ± 6) %; CYP3A4 Efficacy (in parenthesis) (CYP3A4): 0.94 ± 0.06 (-73 ± 3) %
11 | CCNc1nc(Cl)nc(NC(C)(C)C)n1 [Terbutylazine] | – | 10.8 | 0.62 | 31.2 | – | – | Luciferase IC50 [1]: Inactive; CYP2D6 IC50 (human CYP2D6): Inactive; CYP3A4 IC50 (CYP3A4): Inactive
12 | CCN(CC)CCOc1ccc(Cc2ccccc2)cc1.Cl [Tesmilifene hydrochloride] | Inactive | – | – | 0.43 | 12.1 | – | CYP1A2 IC50 (half-maximal inhibitory concentration) (human CYP1A2): Inactive; CYP2C9 IC50 (half-maximal inhibitory concentration) (human CYP2C9): Inactive; AC50 (human CYP2C19): 0.43 µM; AC50 (human CYP2D6): 12.1 µM; AC50 (CYP3A4): 14.2 µM; CYP3A4 IC50 (half-maximal inhibitory concentration) (CYP3A4): 14.21 ± 3.96 (44 ± 9) µM
13 | CCCCCCCC[N+](CCCCCCCC)(CCCCCCCC)CCCCCCCC.[Br-] [Tetra-N-octylammonium bromide] | – | 73.8 | 34.2 | 16.4 | 0.4 | 1.87 | IC50 ([1]; read-out: Luciferase IC50): 89.2 µM
14 | CCCCCCCC[P+](CCCCCCCC)(CCCCCCCC)CCCCCCCC.[Br-] [Tetraoctylphosphonium bromide] | – | 57.7 | 23.2 | 14 | 0.75 | 1.73 | IC50 ([1]; read-out: Luciferase IC50): 65.5 µM
15 | N#Cc1c(-c2ccc(Cl)cc2)[nH]c(C(F)(F)F)c1Br [Tralopyril] | Inactive | 0.33 | 10.4 | 35 | 65.8 | – | CYP3A4 IC50 (half-maximal inhibitory concentration) (CYP3A4): Inactive
16 | C=CCOC(=O)c1ccc(C(=O)OCC=C)c(C(=O)OCC=C)c1 [Triallyl trimellitate] | Inactive | 5.66 | 0.33 | 0.15 | 46.2 | 1.5 | –
17 | CCCC[P+](C)(CCCC)CCCC.COS(=O)(=O)[O-] [Tributylmethylphosphonium methyl sulfate] | – | – | – | 63.3 | 0.24 | – | Luciferase IC50 [1]: Inactive; CYP1A2 IC50 (human CYP1A2): Inactive; CYP2C9 IC50 (human CYP2C9): Inactive; CYP3A4 IC50 (CYP3A4): Inactive
18 | CCC(COC(=O)c1cc(OC)c(OC)c(OC)c1)(c1ccccc1)N(C)C.O=C(O)/C=C\C(=O)O (stereo not drawn) [Trimebutine maleate] | Inactive | – | 15.5 | 30.3 | 0.67 | 4.07 | CYP1A2 IC50 (half-maximal inhibitory concentration) (human CYP1A2): Inactive
19 | c1cc[c]([Bi]([c]2ccccc2)[c]2ccccc2)cc1 [Triphenylbismuth] | – | – | 0.73 | 0.17 | 31.9 | 2.36 | Luciferase IC50 [1]: Inactive; CYP1A2 IC50 (human CYP1A2): Inactive
20 | [Cl][Bi]([Cl])([c]1ccccc1)([c]1ccccc1)[c]1ccccc1 [Triphenylbismuthine dichloride] | – | 17.2 | 0.88 | 0.28 | 7.15 | 15 | IC50 ([1]; read-out: Luciferase IC50): 13.2 µM

From PMC12155096 (International Journal of Molecular Sciences, 2025)
